Values quoted from earlier work as cited in patent US20050124598A1, “Antibiotic compounds” (priority 2001, published 2005).

Target: PBP2a (Staphylococcus aureus, UniProt P07944)
Details: reported β-lactam inhibitors, literature values

IC50 for PBP2a | Structure (SMILES)
0.58 µg/mL | NC(=O)C[n+]1ccc(S/C=C/C2=C(C(=O)[O-])N3C(=O)C(NC(=O)/C(=N\O)c4csc(N)n4)C3SC2)cc1 (centres unmarked) [TOC-39]
0.5 µg/mL | NCCSCc1cnccc1SC1=C(C(=O)O)N2C(=O)[C@@H](NC(=O)/C(=N\O)c3nc(N)sc3Cl)[C@H]2SC1 [MC-02479]
